Reference: paper PMC8714961, “Involvement of P-gp on Reversing Multidrug Resistance Effects of 23-Hydroxybetulinic Acid on Chemotherapeutic Agents” (Frontiers in Pharmacology, 2021)
Where two headings read alike, the source gives them in different places. Marks after values point to notes of the source that are not given here.

Columns and labels:
MCF-7/ADR cells [1] = assay: Hoechst assay (apoptosis); type: cell-based, human; conditions: for Number of apoptosis cells, single agent: vs control group
Procedure: MCF-7/ADR cells were collected and cultured at the density of 2.0 × 10^5/well in 24-well plates. […] The cells were dyed with Hoechst 33,342 (Beyotime, Shanghai, China) in the dark at 37°C for 30 min after washing with phosphate buffered saline (PBS). The morphological changes of the nucleus were evaluated by a fluorescence microscope.

MCF-7/S cells [2] = assay: Trypan blue exclusion assay, MCF-7/S cells; type: cell-based; conditions: 0.2, 2 and 20 µM with ADR 0.08 µM or VCR 0.5 µM, 48 h
Procedure: (§1) MCF-7 (human breast carcinoma cells) and MCF-7/ADR (P-gp-overexpressing derivative cells) cell lines were obtained from Blood Diseases Hospital, Chinese Academy of Medica ([Shi et al., 2011]). The cells were routinely maintained in RPMI 1640 with 10% heat-inactivated fetal bovine serum (FBS), 1% non-essential amino acid solution, 0.1 mg/ml streptomycin, and 100 units/ml penicillin. Caco-2 cells were purchased from American Type Culture Collection (ATCC, Rockville, MD, United States). Vector-MDCK and MDR1-MDCK cells were purchased from PharmaResources Co., Ltd. (China). Both Caco-2 and MDCK cells were maintained at Dulbecco’s modified Eagle’s medium (DMEM) with 10% FBS, 1% non-essential amino acid solution, 0.1 mg/ml streptomycin, and 100 units/ml penicillin. MCF-7/ADR cells were treated with […] and were cultured in ADR-free medium for more than 14 days before the experiment. All cells were cultured at 37°C in a humidified atmosphere of 5% CO2.
(§2) Trypan blue exclusion assay was used to measure the viability of cells to compounds. Briefly, MCF-7/sensitive (MCF-7/S) and MCF-7/ADR cells were diluted into the density of 0.5×10^4 cells/ml, then cells (1 ml) were seeded in culture plates. […]. The viable and dead cells (stained in blue) were counted by haemacytometer.

P-gp [3] = biological target: T1, P-gp (Homo sapiens, UniProt P08183); assay: MDR1 shift assay (UIC2 binding); type: cell-based; design: endogenous in cells; host or cells: MCF-7/ADR; conditions: 25 µM, MCF-7/ADR cells, vs solvent control
Procedure: The monoclonal antibody UIC2 (2.5 μl) was added and incubated for 15 min, then 1 ml of cold binding buffer was used to terminate reaction. The cells were rinsed twice, followed by adding cold phycoerythrin-labeled anti-mouse IgG (250 μl) for another 15 min in the dark. Finally, cells were rinsed and incubated in cold binding buffer (250 μl) and further evaluated by flow cytometer (Cytomics FC 500; Beckman Coulter, Fullerton, CA). In this study, vincristine (25 µM) was set as positive control.

MCF-7/S cells [4] = assay: ADR/VCR accumulation study in MCF-7/S cells; conditions: ADR/VCR 5 µM, test compound 0.2, 2, 20 µM, 1 h
Procedure: (§5) MCF-7 cells (1×10^5/Well) were incubated in 24-well plates. […] After 1 h incubation, the compound solution was aspirated to stop further accumulation, and the monolayers were rinsed with cold Hank’s solution for three times. The drug content was detected by lysing the cells with ultrasound, and then the single well lysate was transferred to a plastic EP tube for further analysis. The protein concentration of the cells was measured using Coomassie brilliant blue.

[5] = test system: MDCK-MDR1 cell monolayers; assay: MDCK-MDR1 transport of BA/23-HBA with or without verapamil; conditions: for Folds (RE): +VER (verapamil 20 µM) vs without VER
Procedure: Briefly, MDCK-MDR1 cells (1×10^5/Well) were seeded onto […] pore-size transwell inserts (Millipore, MA, United States) in 24-well plates. Cells were cultured for 5–7 days, when the transepithelial electrical resistance (TEER) values were 120–240 Ω cm^2.
(§3) The cells were rinsed with warmed Hank’s balanced salt solution (HBSS), and the inserts were incubated for 20 min at 37°C. […] Aliquots (50 µl) were taken from the receiver compartment at intervals of 30, 60, 90, and 120 min and replaced with fresh buffer. In the study, verapamil (VER), known P-gp inhibitor, was selected as positive control.
(§4) The apparent permeability values (Papp) were evaluated in all experiments according to the following equation: Papp=dQ/dt/AC0 (1) where A means the insert area and C0 represents the initial concentration. dQ/dt represents the slope of the cumulative content transported during the time course of the period studied.
The efflux ratio (ER) was detected according to the ratio of Papp as the following equation: ER=Papp(B−A)/Papp(A−B) (2)

P-gp [6] = biological target: T1, P-gp; assay: Caco-2 uptake study (digoxin, VCR)
Procedure: Briefly, the cells (1×10^5/Well) were cultured in 24-well plates, and culture medium was changed every other day. The uptake study was taken when the monolayers formed. […] After 2 h incubation, the drug solution was removed to terminate reaction, and the monolayers were washed three times with cold Hank’s solution. The other steps were taken according to the above process in Adriamycin/Vincristine Accumulation Study.

P-gp [7] = biological target: T1, P-gp; conditions: for Folds (RE) of digoxin: vs control
Procedure: Briefly, MDCK-MDR1 cells (1×10^5/Well) were seeded onto 0.4 mm pore-size transwell inserts (Millipore, MA, United States) in 24-well plates.

P-gp [8] = biological target: T1, P-gp; assay: MDCK-MDR1 transport study, inhibition of VCR transport; conditions: for Folds (RE) of VCR: vs control
Procedure: Briefly, MDCK-MDR1 cells (1×10^5/Well) were seeded onto […] pore-size transwell inserts (Millipore, MA, United States) in 24-well plates.
as §3, §4

MCF-7/ADR cells [9] = assay: ADR/VCR accumulation study in MCF-7/ADR cells; conditions: ADR/VCR 5 µM, test compound 0.2, 2, 20 µM, 1 h
Procedure: as §5

MCF-7/ADR cells [10] = assay: Trypan blue exclusion assay, MCF-7/ADR cells; type: cell-based
Procedure: as §1, §2

[11] = compound 0.2 µM, +VER (verapamil 20 µM)
[12] = compound 0.2 µM, without verapamil
[13] = compound 2 µM, +VER (verapamil 20 µM)
[14] = compound 2 µM, without verapamil
[15] = compound 20 µM, +VER (verapamil 20 µM)
[16] = compound 20 µM, without verapamil
[17] = digoxin 5 µM with test compound 0.2 µM
[18] = digoxin 5 µM with test compound 2 µM
[19] = digoxin 5 µM with test compound 20 µM

T1 sequence (P08183 whole entry): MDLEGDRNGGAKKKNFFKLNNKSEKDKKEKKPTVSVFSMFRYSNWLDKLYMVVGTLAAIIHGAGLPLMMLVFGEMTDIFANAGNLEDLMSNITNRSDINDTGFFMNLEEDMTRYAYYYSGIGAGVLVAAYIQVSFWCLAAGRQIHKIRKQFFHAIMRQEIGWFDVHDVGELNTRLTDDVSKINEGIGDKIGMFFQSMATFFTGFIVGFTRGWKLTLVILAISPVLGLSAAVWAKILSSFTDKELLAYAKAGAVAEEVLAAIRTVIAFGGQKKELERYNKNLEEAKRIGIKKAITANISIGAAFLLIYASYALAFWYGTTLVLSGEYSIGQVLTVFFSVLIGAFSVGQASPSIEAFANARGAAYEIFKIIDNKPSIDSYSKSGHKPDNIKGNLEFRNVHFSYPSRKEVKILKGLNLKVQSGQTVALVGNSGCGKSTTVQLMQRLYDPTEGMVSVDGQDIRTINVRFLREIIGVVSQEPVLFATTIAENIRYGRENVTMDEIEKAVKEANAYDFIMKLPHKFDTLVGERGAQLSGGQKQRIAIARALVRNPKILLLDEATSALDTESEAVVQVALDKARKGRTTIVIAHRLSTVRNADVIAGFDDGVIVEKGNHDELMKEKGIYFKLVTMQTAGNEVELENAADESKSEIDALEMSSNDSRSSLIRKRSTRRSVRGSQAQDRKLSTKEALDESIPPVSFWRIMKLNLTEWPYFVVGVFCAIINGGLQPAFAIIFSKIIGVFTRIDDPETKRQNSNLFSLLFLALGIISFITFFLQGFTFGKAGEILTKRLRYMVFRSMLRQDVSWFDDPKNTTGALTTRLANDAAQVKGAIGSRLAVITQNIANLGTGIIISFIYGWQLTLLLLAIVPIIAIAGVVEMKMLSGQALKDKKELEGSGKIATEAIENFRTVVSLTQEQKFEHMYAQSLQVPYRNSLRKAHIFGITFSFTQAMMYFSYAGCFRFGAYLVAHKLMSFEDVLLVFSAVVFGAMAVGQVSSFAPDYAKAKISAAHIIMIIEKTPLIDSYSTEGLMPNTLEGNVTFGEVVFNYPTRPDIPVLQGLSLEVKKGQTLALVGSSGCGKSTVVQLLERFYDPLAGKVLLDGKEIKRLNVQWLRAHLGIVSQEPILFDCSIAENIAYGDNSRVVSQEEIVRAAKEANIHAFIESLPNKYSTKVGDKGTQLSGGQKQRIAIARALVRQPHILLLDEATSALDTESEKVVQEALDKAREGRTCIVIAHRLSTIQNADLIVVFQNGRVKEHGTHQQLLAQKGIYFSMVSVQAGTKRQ

## COc1cccc2c1C(=O)c1c(O)c3c(c(O)c1C2=O)C[C@@](O)(C(=O)CO)C[C@@H]3O[C@H]1C[C@H](N)[C@H](O)[C@H](C)O1 [ADR, Adriamycin, reference compound]
MCF-7/ADR cells [1]; 3 µM alone
  Number of apoptosis cells, single agent: not obviously different with the control group

## C=C(C)[C@@H]1CC[C@]2(C(=O)O)CC[C@]3(C)[C@H](CC[C@@H]4[C@@]5(C)CC[C@H](O)[C@@](C)(CO)[C@@H]5CC[C@]43C)[C@@H]12 [23-HBA, 23-hydroxybetulinic acid]
MCF-7/S cells [2]
  Effect on cytotoxicity of MCF-7/S cells to ADR or VCR: neither 23-HBA nor BA showed significant effects on cytotoxicity
P-gp [3]
  Fluorescence intensity of UIC2 binding (MDR1 shift): fluorescence intensity showed slight increase
MCF-7/S cells [4]
  Accumulation of ADR/VCR in sensitive MCF-7 cells: little impact was observed
[5]; MDCK-MDR1 cells, all the concentrations (0.2–20 µM)
  ER values: less than 1.5
[5]; [11]
  Papp A-B: 8.49 ± 1.39 ×10^−6 cm s^−1
  Papp B-A: 5.20 ± 0.59 ×10^−6 cm s^−1
  RE (net efflux): 0.61**
[5]; compound 0.2 µM
  Folds (RE): 0.41
[5]; [12]
  Papp A-B: 6.73 ± 0.09 ×10^−6 cm s^−1
  Papp B-A: 10.01 ± 1.38 ×10^−6 cm s^−1
  RE (net efflux): 1.49
[5]; [13]
  Papp A-B: 10.03 ± 3.22 ×10^−6 cm s^−1
  Papp B-A: 7.83 ± 0.32 ×10^−6 cm s^−1
  RE (net efflux): 0.78*
[5]; compound 2 µM
  Folds (RE): 0.63
[5]; [14]
  Papp A-B: 7.07 ± 0.64 ×10^−6 cm s^−1
  Papp B-A: 8.75 ± 0.31 ×10^−6 cm s^−1
  RE (net efflux): 1.24
[5]; [15]
  Papp A-B: 12.76 ± 1.13 ×10^−6 cm s^−1
  Papp B-A: 7.47 ± 1.64 ×10^−6 cm s^−1
  RE (net efflux): 0.59
[5]; compound 20 µM
  Folds (RE): 0.82
[5]; [16]
  Papp A-B: 5.95 ± 0.94 ×10^−6 cm s^−1
  RE (net efflux): 0.72
P-gp [6]; 20 µM
  Inhibitory effect compared with verapamil (20 µM) in Caco-2 cells: higher than that of verapamil
P-gp [6]; 0.2, 2 and 20 µM, 2 h
  Effect on uptake of VCR and digoxin in Caco-2 cells (P-gp inhibition): showed dose-dependent increase on the penetration of VCR and digoxin
P-gp [7]; [17]
  RE (net efflux) of digoxin: 31.57
  Folds (RE) of digoxin: 1.16
P-gp [7]; [18]
  RE (net efflux) of digoxin: 27.96
  Folds (RE) of digoxin: 1.31
P-gp [7]; [19]
  RE (net efflux) of digoxin: 2.69
  Folds (RE) of digoxin: 13.61
MCF-7/ADR cells [1]; 20 µM alone
  Number of apoptosis cells, single agent: not obviously different with the control group
MCF-7/ADR cells [1]; 2 and 20 µM with ADR 3 µM
  Apoptosis caused by ADR in combination exposure: dose-dependent (2 and 20 μM) increase in the apoptosis caused by ADR
P-gp [8]; VCR with test compound 0.2 µM
  Papp A→B of VCR: 0.69 ± 0.30 ×10^−6 cm s^−1
  Papp B→A of VCR: 4.45 ± 1.12 ×10^−6 cm s^−1
  RE (net efflux) of VCR: 6.41
  Folds (RE) of VCR: 1.70
P-gp [8]; VCR with test compound 2 µM
  Papp A→B of VCR: 2.49 ± 0.59 ×10^−6 cm s^−1
  Papp B→A of VCR: 0.39 ± 0.01 ×10^−6 cm s^−1
  RE (net efflux) of VCR: 0.16
  Folds (RE) of VCR: 70.15
P-gp [8]; VCR with test compound 20 µM
  Papp A→B of VCR: 2.19 ± 1.74 ×10^−6 cm s^−1
  Papp B→A of VCR: 0.48 ± 0.08 ×10^−6 cm s^−1
  RE (net efflux) of VCR: 0.22
  Folds (RE) of VCR: 49.32
MCF-7/ADR cells [9]
  Intracellular accumulation of ADR/VCR in resistant MCF-7 cells: obviously increased
MCF-7/ADR cells [10]; 0–20 µM with ADR 3 µM
  Cytotoxicity of combination exposure with ADR to MCF-7/ADR: showed significant cytotoxicity to MCF-7/ADR
MCF-7/ADR cells [10]; 0–20 µM, single agent
  Cell toxicity as a single agent: no cell toxicity was detected
MCF-7/ADR cells [10]; 0.2, 2 and 20 µM with ADR 3 µM or VCR 6 µM, 48 h
  Effect on cytotoxicity of MCF-7/ADR cells to ADR or VCR: can increase cytotoxicity of MCF-7/ADR cells to ADR or VCR in concentration-dependent manner
